Reference: ChEMBL document CHEMBL1151513, “Stereospecific synthesis of chiral acyclic analogues of guanosine” (1992)
The source made the active and inactive calls. The rule behind the calls is not given here.

Legend:
MT4 [1] = assay: Compound was tested for its cytotoxic effect against MT-4 cells at 1 mM; 1 to 10 uM; assay type: functional; conditions: Homo sapiens, read-out: CD50 (the source's name)
[2] = Compound was tested for its in vitro inhibitory effect on the replication of DNA and RNA viruses at 1 mM; No inhibition; assay type: functional
MT4 [3] = assay: Compound was tested for its cytotoxic effect against MT-4 cells at 1 mM; No effect; assay type: functional, cell-based; conditions: Homo sapiens
MT4 [4] = assay: Compound was tested for its cytotoxic effect against MT-4 cells at 1 mM;value between 10-100 uM; assay type: functional; conditions: Homo sapiens, read-out: CD50 (the source's name)

| Structure (SMILES) | CC50 (MT4 [1]) [µM] | Activity [2] | Activity (MT4 [3]) | CC50 (MT4 [4]) [µM] |
| --- | --- | --- | --- | --- |
| Nc1nc(O)c2ncn(C(CCO)OCCO)c2n1 (stereo not drawn) | < 10 | inactive | – | – |
| Nc1nc(O)c2ncn(C(OCCO)C(O)CO)c2n1 (stereo not drawn) | – | inactive | inactive | – |
| Nc1nc(O)c2ncn(C(CO)OCCO)c2n1 (stereo not drawn) | – | inactive | inactive | – |
| Nc1nc(O)c2ncn(C3CC(O)C(O)CO3)c2n1 (stereo not drawn) | – | inactive | – | < 100 |
